In patent US12054466B2, “Compounds for the treatment of clostridium difficile infection” (University of Notre Dame du Lac, priority 2016, dated 2024):
Values after ≈ are worked out from the molar mass of the structure shown. Where two headings read alike, the source gives them in different places.

Columns and labels:
Assay type in all cases: cell-based
[1] = test system: Veillonella sp. HM-49; test: MIC against common gut bacteria; conditions: for MIC: SP.HM49, Veillonella sp. HM-49, read-out: MIC; for Activity against Veillonella sp.: in words
[2] = test system: C. difficile NR49310; test: MIC, broth microdilution; conditions: Clostridioides difficile, C. difficile NR49310 (NAP7, ribotype 078)
[3] = test system: C. difficile ATCC43598; test: MIC, broth microdilution; conditions: Clostridioides difficile, C. difficile ATCC43598
[4] = test system: Fusobacterium nucleatum HM-992; test: MIC against common gut bacteria; conditions: HM992; Fusobacterium nucleatum HM-992; read-out: MIC
[5] = test system: C. difficile NR49294; test: MIC, broth microdilution; conditions: Clostridioides difficile, C. difficile NR49294 (NAP4, ribotype 014)
[6] = test system: Corynebacterium sp. HM-784; test: MIC against common gut bacteria; conditions: SP.HM784; Corynebacterium sp. HM-784; incubated aerobically; read-out: MIC
Experimental: Minimally-inhibitory concentrations. MICs for C. difficile strains and the common gut bacteria were determined using broth microdilution techniques as reported earlier using brucella broth supplemented with hemin and vitamin K or supplemented BHIS broth (Babakhani et al., J Antimicrob Chemother 2013, 68(3), 515). Lactobacillus MRS broth was used for lactobacillus strains. […] All incubations unless specified otherwise were carried out at 24 or 48 h at 37° C. in an anaerobic chamber (Whitley DG250 workstation, Microbiology International, Frederick, MD). Corynebacterium and lactobacillus species were incubated aerobically.

[7] = test system: C. difficile ATCC43255; test: MIC, broth microdilution; conditions: Clostridioides difficile, C. difficile ATCC43255
[8] = test system: C. difficile BAA-1870; test: MIC, broth microdilution; conditions: Clostridioides difficile, BAA1870, C. difficile BAA-1870 (NAP1, ribotype 27)
[9] = test system: Bacteroides caccae; test: MIC against common gut bacteria; conditions: read-out: MIC
[10] = test system: Bacteroides eggerthii; test: MIC against common gut bacteria; conditions: read-out: MIC
[11] = test system: Lactobacillus reuteri HM-102; test: MIC against common gut bacteria; conditions: for MIC: Limosilactobacillus reuteri, HM102, Lactobacillus reuteri HM-102, read-out: MIC; for Activity against Lactobacillus reuteri: in words
[12] = test system: Bacteroides vulgatus; test: MIC against common gut bacteria; conditions: Phocaeicola vulgatus; Bacteroides vulgatus; read-out: MIC
[13] = test system: C. difficile BAA-1812; test: MIC, broth microdilution; conditions: Clostridioides difficile, BAA1812, C. difficile BAA-1812
[14] = test system: C. difficile NR49302; test: MIC, broth microdilution; conditions: Clostridioides difficile, C. difficile NR49302 (NAP4, ribotype 020)
[15] = test system: C. difficile NR49292; test: MIC, broth microdilution; conditions: Clostridioides difficile, C. difficile NR49292 (NAP2, ribotype 001_072)
[16] = test system: C. difficile BAA-1804; test: MIC, broth microdilution; conditions: Clostridioides difficile, BAA1804, C. difficile BAA-1804
[17] = test system: C. difficile BAA-1814; test: MIC, broth microdilution; conditions: Clostridioides difficile, BAA1814, C. difficile BAA-1814
[18] = test system: Lactobacillus gasseri HM-644; test: MIC against common gut bacteria; conditions: for MIC: HM644, Lactobacillus gasseri HM-644, read-out: MIC; for Activity against Lactobacillus gasseri: in words
[19] = test system: Bacteroides fragilis; test: MIC against common gut bacteria; conditions: read-out: MIC
[20] = test system: Bacteroides fragilis HM-709; test: MIC against common gut bacteria; conditions: HM709; Bacteroides fragilis HM-709; read-out: MIC
[21] = test system: C. difficile NR49305; test: MIC, broth microdilution; conditions: Clostridioides difficile, C. difficile NR49305 (NAP6, ribotype 002)
[22] = test system: C. difficile NR49318; test: MIC, broth microdilution; conditions: Clostridioides difficile, C. difficile NR49318 (NAP11, ribotype 106)
[23] = test system: Eubacterium sp. HM-178; test: MIC against common gut bacteria; conditions: SP.HM178
[24] = test system: Bacteroides ovatus; test: MIC against common gut bacteria; conditions: read-out: MIC
[25] = test system: C. difficile BAA-1801; test: MIC, broth microdilution; conditions: Clostridioides difficile, BAA1801, C. difficile BAA-1801 (nontoxigenic)
[26] = test system: C. difficile BAA-1803; test: MIC, broth microdilution; conditions: Clostridioides difficile, BAA1803, C. difficile BAA-1803 (NAP1, ribotype 027)
[27] = test system: Bifidobacterium longum HM-846; test: MIC against common gut bacteria; conditions: HM846; Bifidobacterium longum HM-846; read-out: MIC

## FC(F)(F)c1ccc(Oc2ccc(-c3noc(-c4ccc5[nH]ccc5c4)n3)cc2)cc1 [Compound 1]
[1]
  MIC: > 12 µg/mL
  Activity against Veillonella sp.: not active
[2]; 24 h, read-out: MIC at 24 h
  MIC: 2 µg/mL (≈ 4.75 µM)
[2]; 48 h, read-out: MIC at 48 h
  MIC: 2 µg/mL (≈ 4.75 µM)
[3]; 24 h, read-out: MIC at 24 h
  MIC: 1 µg/mL (≈ 2.37 µM)
[3]; 48 h, read-out: MIC at 48 h
  MIC: 1 µg/mL (≈ 2.37 µM)
[4]
  MIC: 1 µg/mL (≈ 2.37 µM)
[5]; 24 h, read-out: MIC at 24 h
  MIC: 1 µg/mL (≈ 2.37 µM)
[5]; 48 h, read-out: MIC at 48 h
  MIC: 1 µg/mL (≈ 2.37 µM)
[6]
  MIC: 2 µg/mL (≈ 4.75 µM)
[7]; 24 h, read-out: MIC at 24 h
  MIC: 2 µg/mL (≈ 4.75 µM)
[7]; 48 h, read-out: MIC at 48 h
  MIC: 2 µg/mL (≈ 4.75 µM)
[8]; 24 h, read-out: MIC at 24 h
  MIC: 2 µg/mL (≈ 4.75 µM)
[8]; 48 h, read-out: MIC at 48 h
  MIC: 4 µg/mL (≈ 9.49 µM)
[9]
  MIC: 4 µg/mL (≈ 9.49 µM)
[10]
  MIC: 2 µg/mL (≈ 4.75 µM)
[11]
  MIC: > 12 µg/mL
  Activity against Lactobacillus reuteri: not active
[12]
  MIC: 2 µg/mL (≈ 4.75 µM)
[13]; 24 h, read-out: MIC at 24 h
  MIC: 2 µg/mL (≈ 4.75 µM)
[13]; 48 h, read-out: MIC at 48 h
  MIC: 2 µg/mL (≈ 4.75 µM)
[14]; 24 h, read-out: MIC at 24 h
  MIC: 1 µg/mL (≈ 2.37 µM)
[14]; 48 h, read-out: MIC at 48 h
  MIC: 2 µg/mL (≈ 4.75 µM)
[15]; 24 h, read-out: MIC at 24 h
  MIC: 1 µg/mL (≈ 2.37 µM)
[15]; 48 h, read-out: MIC at 48 h
  MIC: 2 µg/mL (≈ 4.75 µM)
[16]; 24 h, read-out: MIC at 24 h
  MIC: 2 µg/mL (≈ 4.75 µM)
[16]; 48 h, read-out: MIC at 48 h
  MIC: 2 µg/mL (≈ 4.75 µM)
[17]; 24 h, read-out: MIC at 24 h
  MIC: 2 µg/mL (≈ 4.75 µM)
[17]; 48 h, read-out: MIC at 48 h
  MIC: 4 µg/mL (≈ 9.49 µM)
[18]
  MIC: > 12 µg/mL
  Activity against Lactobacillus gasseri: not active
[19]
  MIC: 4 µg/mL (≈ 9.49 µM)
[20]
  MIC: 2 µg/mL (≈ 4.75 µM)
[21]; 24 h, read-out: MIC at 24 h
  MIC: 2 µg/mL (≈ 4.75 µM)
[21]; 48 h, read-out: MIC at 48 h
  MIC: 4 µg/mL (≈ 9.49 µM)
[22]; 24 h, read-out: MIC at 24 h
  MIC: 2 µg/mL (≈ 4.75 µM)
[22]; 48 h, read-out: MIC at 48 h
  MIC: 2 µg/mL (≈ 4.75 µM)
[23]
  MIC: 2 µg/mL (≈ 4.75 µM)
[24]
  MIC: 4 µg/mL (≈ 9.49 µM)
[25]; 24 h, read-out: MIC at 24 h
  MIC: 2 µg/mL (≈ 4.75 µM)
[25]; 48 h, read-out: MIC at 48 h
  MIC: 4 µg/mL (≈ 9.49 µM)
[26]; 24 h, read-out: MIC at 24 h
  MIC: 1 µg/mL (≈ 2.37 µM)
[26]; 48 h, read-out: MIC at 48 h
  MIC: 2 µg/mL (≈ 4.75 µM)
[27]
  MIC: 0.2 µg/mL (≈ 0.475 µM)

## Oc1ccc(-c2nc(-c3ccc(OC4CCCC4)cc3)no2)cc1 [Compound 2]
[1]
  MIC: > 128 µg/mL
  Activity against Veillonella sp.: not active
[2]; 24 h, read-out: MIC at 24 h
  MIC: 2 µg/mL (≈ 6.2 µM)
[2]; 48 h, read-out: MIC at 48 h
  MIC: 4 µg/mL (≈ 12.4 µM)
[3]; 24 h, read-out: MIC at 24 h
  MIC: 1 µg/mL (≈ 3.1 µM)
[3]; 48 h, read-out: MIC at 48 h
  MIC: 2 µg/mL (≈ 6.2 µM)
[4]
  MIC: 2 µg/mL (≈ 6.2 µM)
[5]; 24 h, read-out: MIC at 24 h
  MIC: 1 µg/mL (≈ 3.1 µM)
[5]; 48 h, read-out: MIC at 48 h
  MIC: 2 µg/mL (≈ 6.2 µM)
[6]
  MIC: 0.5 µg/mL (≈ 1.55 µM)
[7]; 24 h, read-out: MIC at 24 h
  MIC: 2 µg/mL (≈ 6.2 µM)
[7]; 48 h, read-out: MIC at 48 h
  MIC: 2 µg/mL (≈ 6.2 µM)
[8]; 24 h, read-out: MIC at 24 h
  MIC: 2 µg/mL (≈ 6.2 µM)
[8]; 48 h, read-out: MIC at 48 h
  MIC: 2 µg/mL (≈ 6.2 µM)
[9]
  MIC: 2 µg/mL (≈ 6.2 µM)
[10]
  MIC: 1 µg/mL (≈ 3.1 µM)
[11]
  MIC: > 128 µg/mL
  Activity against Lactobacillus reuteri: not active
[12]
  MIC: 2 µg/mL (≈ 6.2 µM)
[13]; 24 h, read-out: MIC at 24 h
  MIC: 2 µg/mL (≈ 6.2 µM)
[13]; 48 h, read-out: MIC at 48 h
  MIC: 2 µg/mL (≈ 6.2 µM)
[14]; 24 h, read-out: MIC at 24 h
  MIC: 2 µg/mL (≈ 6.2 µM)
[14]; 48 h, read-out: MIC at 48 h
  MIC: 2 µg/mL (≈ 6.2 µM)
[15]; 24 h, read-out: MIC at 24 h
  MIC: 1 µg/mL (≈ 3.1 µM)
[15]; 48 h, read-out: MIC at 48 h
  MIC: 2 µg/mL (≈ 6.2 µM)
[16]; 24 h, read-out: MIC at 24 h
  MIC: 2 µg/mL (≈ 6.2 µM)
[16]; 48 h, read-out: MIC at 48 h
  MIC: 2 µg/mL (≈ 6.2 µM)
[17]; 24 h, read-out: MIC at 24 h
  MIC: 2 µg/mL (≈ 6.2 µM)
[17]; 48 h, read-out: MIC at 48 h
  MIC: 2 µg/mL (≈ 6.2 µM)
[18]
  MIC: > 128 µg/mL
  Activity against Lactobacillus gasseri: not active
[19]
  MIC: 2 µg/mL (≈ 6.2 µM)
[20]
  MIC: 1 µg/mL (≈ 3.1 µM)
[21]; 24 h, read-out: MIC at 24 h
  MIC: 2 µg/mL (≈ 6.2 µM)
[21]; 48 h, read-out: MIC at 48 h
  MIC: 2 µg/mL (≈ 6.2 µM)
[22]; 24 h, read-out: MIC at 24 h
  MIC: 2 µg/mL (≈ 6.2 µM)
[22]; 48 h, read-out: MIC at 48 h
  MIC: 4 µg/mL (≈ 12.4 µM)
[23]
  MIC: 4 µg/mL (≈ 12.4 µM)
[24]
  MIC: 2 µg/mL (≈ 6.2 µM)
[25]; 24 h, read-out: MIC at 24 h
  MIC: 2 µg/mL (≈ 6.2 µM)
[25]; 48 h, read-out: MIC at 48 h
  MIC: 2 µg/mL (≈ 6.2 µM)
[26]; 24 h, read-out: MIC at 24 h
  MIC: 1 µg/mL (≈ 3.1 µM)
[26]; 48 h, read-out: MIC at 48 h
  MIC: 2 µg/mL (≈ 6.2 µM)
[27]
  MIC: 1 µg/mL (≈ 3.1 µM)
